Assay [1] relates to hindquarter blood flow. The assay can be described thus: Vasodilatation in vivo (perfused hindquarters at constant pressure). The note with it: Rattus norvegicus, iv; dose producing a 50% increase in hindquarter blood flow; bolus i.v.; anaesthetised male Wistar rats; read-out: EDHQ₅₀. How it is done: Male Wistar rats (300 g) were anaesthetised with a sodium 5-ethyl-5-(1-methylpropyl)-2-thiobarbiturate/sodium pentobarbitone mixture i.p. (62.5 and 22.5 mg/kg respectively). The trachea was cannulated and the rats breathed spontaneously air enriched with O₂ (5 ml/min). Blood pressure was recorded from a carotid artery and a jugular vein was cannulated for the administration of compounds. The temperature of the animal was maintained at 37°C by the use of an electric blanket. […] The perfusion circuit was primed with 5% bovine serum albumin dissolved in 0.9% sodium chloride solution, pH adjusted to 7.4. Initially the pump rate was set between 10 and 15 ml/min to match the hind quarter perfusion pressure to that of the systemic circulation. Once set, the pressure remained unaltered for the rest of the experiment. A change in the speed of the pump (equivalent to hindquarter blood flow) was used to assess the changes in hindquarter vascular resistance.
All compounds were administered as a bolus i.v. and from the dose response curves the dose required to produce a 50% increase in hindquarter blood flow (EDHQ₅₀) was determined in µmoles/kg.

Assay [2] deals with bronchoconstrictor response. As to the kind of experiment: Anti-allergic activity (ovalbumen challenge in sensitised animals). Format: in vivo, Duncan Hartley guinea-pigs. The note with it: Cavia porcellus, iv, 0.5 h; dose of 11 µmol/kg i.v.; ovalbumen 1mg.kg⁻¹ i.v. challenge 30 minutes following drug administration; sensitised guinea-pigs; read-out: inhibition of the control bronchoconstrictor response. How it is done:
Male Duncan Hartley guinea-pigs (250-300 g) were sensitised to ovalbumen by i.p. injection of 2 ml of 50mg.ml⁻¹ i.p. and 0.2 ml s.c. Three weeks later they were anaesthetised with 60mg.kg⁻¹ sodium pentabarbitone. The trachea was cannulated and the animal respired at a rate of 40 breaths per minute and at an initial tracheal inflation pressure of 16 mmHg. Tracheal inflation pressure was measured by a transducer connected to a side arm of the respiration circuit. The carotid artery was cannulated for the measurement of blood pressure and the signal was used to trigger an instantaneous rate meter. A jugular vein was cannulated for the administration of drug and allergen. After surgery the animals were allowed to stabilise and the drug was administered i.v. as a bolus. Following this, ovalbumen 1mg.kg⁻¹ was injected i.v. as the antigen challenge either 2, 15 or 30 minutes following drug treatment and the peak bronchoconstrictor response recorded. For the control group ovalbumen only was given. One ovalbumen challenge per guinea-pig was used and n = 6 for each time point. The percentage increase in tracheal inflation pressure was calculated.

For `CCCOc1ccccc1-c1ccc(C#N)c(=O)[nH]1` [Example 1, 3-Cyano-6-(2-propoxyphenyl)-2(1H)-pyridinone], in assay [1], the ED50 stood at 11.5 µmol/kg.

On to `CCCOc1ccccc1-c1ccc(C(N)=O)c(=O)[nH]1` [Example 2, 6-(2-Propoxyphenyl)-1,2-dihydro-2-oxopyridine-3-carboxamide], for which the ED50 in assay [1] came to 14 µmol/kg. Besides, the inhibition at 11 µmol/kg in assay [2] is 44%.

The record behind these values is patent EP0347027B1, “Phenylpyridone derivatives,processes for their preparation and pharmaceutical compositions containing them” (SMITH KLINE & FRENCH LABORATORIES LIMITED, priority 1988, dated 1989).
